Data as given in ChEMBL document CHEMBL4673322, “Discovery and optimization of a potent and selective indazolamine series of IRAK4 inhibitors” (Bioorg Med Chem Lett, 2021).
Values after ≈ are worked out from the molar mass of the structure shown.

Key:
[1] = Metabolic stability in rat liver microsomes assessed as intrinsic clearance; type: ADME, Microsome; settings: read-out: CLH
[2] = Half life in Sprague-Dawley rat at 5 mg/kg, po; type: ADME, organism-based; settings: in vivo
[3] = Cmax in Sprague-Dawley rat at 5 mg/kg, po; type: ADME, organism-based; set-up: route oral, dose 5 mg/kg; settings: in vivo
[4] = Metabolic stability in mouse liver microsomes assessed as intrinsic clearance; type: ADME, Microsome; settings: read-out: CLH
[5] = Oral bioavailability in Sprague-Dawley rat at 5 mg/kg; type: ADME, organism-based; settings: in vivo
[6] = Metabolic stability in human liver microsomes assessed as intrinsic clearance; type: ADME, Microsome; settings: read-out: CLH
[7] = AUC in Sprague-Dawley rat at 5 mg/kg, po; type: ADME, organism-based; set-up: dose 5 mg/kg; settings: in vivo
[8] = AUC (0 to 24 hrs) in dog at 0.5 mg/kg, iv; type: ADME, organism-based, Canis lupus familiaris; set-up: time < 24 hr, route intravenous, dose 0.5 mg/kg; settings: in vivo
[9] = Volume of distribution at steady state in monkey at 0.5 mg/kg, iv; type: ADME, organism-based, Macaca mulatta; settings: rhesus monkey, in vivo, read-out: Vdss
[10] = Volume of distribution at steady state in dog at 0.5 mg/kg, iv; type: ADME, organism-based, Canis lupus familiaris; settings: in vivo, read-out: Vdss
[11] = Metabolic stability in dog liver microsomes assessed as intrinsic clearance; type: ADME, Canis lupus familiaris, Microsome; settings: read-out: CLH
[12] = AUC (0 to 24 hrs) in Sprague-Dawley rat at 10 mg/kg, po; type: ADME, organism-based; set-up: time < 24 hr, route oral, dose 10 mg/kg; settings: in vivo
[13] = Volume of distribution at steady state in mouse at 1 mg/kg, iv; type: ADME, organism-based; settings: in vivo, read-out: Vdss
[14] = Metabolic stability in monkey liver microsomes assessed as intrinsic clearance; type: ADME, Macaca mulatta, Microsome; settings: rhesus monkey, read-out: CLH
[15] = Half life in monkey at 0.5 mg/kg, iv; type: ADME, organism-based, Macaca mulatta; settings: rhesus monkey, in vivo
[16] = Half life in monkey at 2 mg/kg, po; type: ADME, organism-based, Macaca mulatta; settings: rhesus monkey, in vivo
[17] = AUC (0 to 24 hrs) in monkey at 2 mg/kg, po; type: ADME, organism-based, Macaca mulatta; set-up: time < 24 hr, route oral, dose 2 mg/kg; settings: rhesus monkey, in vivo
[18] = Oral bioavailability in dog at 2 mg/kg; type: ADME, organism-based, Canis lupus familiaris; settings: in vivo
[19] = Clearance in mouse at 1 mg/kg, iv; type: ADME, organism-based; settings: in vivo
[20] = Oral bioavailability in mouse at 2 mg/kg; type: ADME, organism-based; settings: in vivo
[21] = Oral bioavailability in monkey at 2 mg/kg; type: ADME, organism-based, Macaca mulatta; settings: rhesus monkey, in vivo
[22] = Clearance in monkey at 0.5 mg/kg, iv; type: ADME, organism-based, Macaca mulatta; settings: rhesus monkey, in vivo
[23] = AUC (0 to 24 hrs) in monkey at 0.5 mg/kg, iv; type: ADME, organism-based, Macaca mulatta; set-up: time < 24 hr, route intravenous, dose 0.5 mg/kg; settings: rhesus monkey, in vivo
[24] = Protein binding in human plasma; type: ADME, cell-free; settings: read-out: PPB (converted)
[25] = Clearance in dog at 0.5 mg/kg, iv; type: ADME, organism-based, Canis lupus familiaris; settings: in vivo
[26] = AUC(0 to 24 hrs) in mouse at 2 mg/kg, po; type: ADME, organism-based; set-up: time < 24 hr, route oral, dose 2 mg/kg; settings: in vivo
[27] = Metabolic stability in human Hepatocyte assessed as half life; type: ADME, tissue-based; settings: hepatocytes
[28] = Half life in dog at 0.5 mg/kg, iv; type: ADME, organism-based, Canis lupus familiaris; settings: in vivo
[29] = Half life in dog at 2 mg/kg, po; type: ADME, organism-based, Canis lupus familiaris; settings: in vivo
[30] = Half life in Sprague-Dawley rat at 10 mg/kg, po; type: ADME, organism-based; settings: in vivo
[31] = Cmax in Sprague-Dawley rat at 10 mg/kg, po; type: ADME, organism-based; set-up: route oral, dose 10 mg/kg; settings: in vivo
[32] = AUC(0 to 24 hrs) in mouse at 1 mg/kg, iv; type: ADME, organism-based; set-up: time < 24 hr, route intravenous, dose 1 mg/kg; settings: in vivo
[33] = Apparent permeability across basolateral to apical side; type: ADME; settings: not told
[34] = Half life in mouse at 1 mg/kg, iv; type: ADME, organism-based; settings: in vivo
[35] = Apparent permeability across apical to basolateral side; type: ADME; settings: not told
[36] = in vivo; settings: Sprague-Dawley, rat, iv, 1 mg/kg
Description: Clearance in Sprague-Dawley rat at 1 mg/kg, iv

[37] = physchem; settings: FaSSIF, pH 6.5
Description: Solubility in FassIF at pH 6.5

[38] = AUC (0 to 24 hrs) in dog at 2 mg/kg, po; type: ADME, organism-based, Canis lupus familiaris; set-up: time < 24 hr, route oral, dose 2 mg/kg; settings: in vivo

CC(C)(O)CCn1cc2cc(NC(=O)c3cccc(C(F)(F)F)n3)c(C(C)(C)O)cc2n1
CLint scaled [1]: 3.11 mL/min/kg
half-life [2]: 3.6 h
Cmax [3]: 2310 ng/mL
CLint scaled [4]: 3.91 mL/min/kg
bioavailability [5]: 84%
CLint scaled [6]: 1.28 mL/min/kg
AUC [7]: 18400 ng·h/mL

CN(C)CCn1cc2cc(NC(=O)c3cccc(C(F)(F)F)n3)c(C(C)(C)O)cc2n1
AUC(0-t) at 24 h [8]: 148 ng·h/mL
Vd [9]: 0.67 L/kg
Vd [10]: 2.63 L/kg
CLint scaled [11]: 116 mL/min/kg
CLint scaled [1]: 15 mL/min/kg
AUC(0-t) at 24 h [12]: 11900 ng·h/mL
Vd [13]: 2.43 L/kg
CLint scaled [14]: 1.96 mL/min/kg
half-life [15]: 1.96 h
half-life [16]: 3.5 h
AUC(0-t) at 24 h [17]: 3670 ng·h/mL
CLint scaled [4]: 8.82 mL/min/kg
bioavailability [18]: 14.4%
clearance [19]: 17.1 mL/min/kg
bioavailability [20]: 67.3%
bioavailability [21]: 49%
clearance [22]: 4.86 mL/min/kg
AUC(0-t) at 24 h [23]: 1870 ng·h/mL
fraction unbound [24]: 0.014
clearance [25]: 55.6 mL/min/kg
AUC(0-t) at 24 h [26]: 1300 ng·h/mL
half-life [27]: 9.72 h
half-life [28]: 0.72 h
half-life [29]: 6.4 h
half-life [30]: 3.3 h
CLint scaled [6]: 5.25 mL/min/kg
Cmax [31]: 2110 ng/mL
AUC(0-t) at 24 h [32]: 966 ng·h/mL
Papp B→A [33]: 22.7 ×10⁻⁶ cm/s
half-life [34]: 1.62 h
Papp A→B [35]: 27.3 ×10⁻⁶ cm/s
clearance [36]: 8.3 mL/min/kg
solubility [37]: 92.3 µM (≈ 40.2 µg/mL)
AUC(0-t) at 24 h [38]: 85.3 ng·h/mL

COc1cc(NC(=O)c2cccc(C(F)(F)F)n2)cc2cn(CCC(C)(C)O)nc12
AUC(0-t) at 24 h [12]: 34500 ng·h/mL
half-life [30]: 3.5 h
Cmax [31]: 3320 ng/mL
clearance [36]: 5.5 mL/min/kg
